BindingDB's records for doi:10.1038/sj.npp.1300819 (Case Western Reserve University, 2006)

Assays:
[1] = biological target: Alpha-2A adrenergic receptor (Homo sapiens, UniProt P08913)
[2] = biological target: 5-hydroxytryptamine receptor 2C (Rattus norvegicus, UniProt P08909)
[3] = biological target: 5-hydroxytryptamine receptor 6 (Homo sapiens, UniProt P50406)
[4] = biological target: Sodium-dependent dopamine transporter (Homo sapiens, UniProt Q01959)
D(1B) dopamine receptor = D(1B) dopamine receptor (Homo sapiens, UniProt P21918)
[5] = biological target: Sodium-dependent serotonin transporter (Homo sapiens, UniProt P31645)
D(1A) dopamine receptor = D(1A) dopamine receptor (Homo sapiens, UniProt P21728)
[6] = biological target: Alpha-1B adrenergic receptor (Homo sapiens, UniProt P35368)
[7] = biological target: 5-hydroxytryptamine receptor 2B (Homo sapiens, UniProt P41595)
[8] = biological target: Alpha-1A adrenergic receptor (Homo sapiens, UniProt P35348)
[9] = biological target: Alpha-2C adrenergic receptor (Homo sapiens, UniProt P18825)
[10] = biological target: 5-hydroxytryptamine receptor 2A (Rattus norvegicus, UniProt P14842)
[11] = biological target: 5-hydroxytryptamine receptor 1A (Homo sapiens, UniProt P08908)
[12] = biological target: 5-hydroxytryptamine receptor 1B (Rattus norvegicus, UniProt P28564)
[13] = biological target: Sodium-dependent noradrenaline transporter (Homo sapiens, UniProt P23975)
Histamine H1 receptor = Histamine H1 receptor (Homo sapiens, UniProt P35367)
D(4) dopamine receptor = D(4) dopamine receptor (Homo sapiens, UniProt P21917)
[14] = biological target: Muscarinic acetylcholine receptor M3 (Homo sapiens, UniProt P20309)
[15] = biological target: Muscarinic acetylcholine receptor M5 (Homo sapiens, UniProt P08912)
[16] = biological target: 5-hydroxytryptamine receptor 5A (Homo sapiens, UniProt P47898)
D(3) dopamine receptor = D(3) dopamine receptor (Rattus norvegicus, UniProt P19020)
[17] = biological target: Muscarinic acetylcholine receptor M1 (Homo sapiens, UniProt P11229)
[18] = biological target: Muscarinic acetylcholine receptor M4 (Homo sapiens, UniProt P08173)
[19] = biological target: Muscarinic acetylcholine receptor M2 (Homo sapiens, UniProt P08172)

Sequence of Alpha-2C adrenergic receptor (P18825 whole entry): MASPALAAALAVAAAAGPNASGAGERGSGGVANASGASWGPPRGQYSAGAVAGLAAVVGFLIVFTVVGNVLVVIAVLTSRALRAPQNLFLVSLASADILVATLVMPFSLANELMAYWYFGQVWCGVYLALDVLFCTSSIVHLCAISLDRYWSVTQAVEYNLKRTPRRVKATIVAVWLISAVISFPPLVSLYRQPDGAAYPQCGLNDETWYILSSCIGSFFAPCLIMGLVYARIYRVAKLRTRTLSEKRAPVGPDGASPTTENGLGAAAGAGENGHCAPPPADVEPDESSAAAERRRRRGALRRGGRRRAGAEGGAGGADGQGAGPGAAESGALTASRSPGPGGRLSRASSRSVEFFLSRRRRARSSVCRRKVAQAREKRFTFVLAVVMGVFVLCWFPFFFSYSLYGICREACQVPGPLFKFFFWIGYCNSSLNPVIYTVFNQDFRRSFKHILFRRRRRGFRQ
Sequence of 5-hydroxytryptamine receptor 2C (P08909 whole entry): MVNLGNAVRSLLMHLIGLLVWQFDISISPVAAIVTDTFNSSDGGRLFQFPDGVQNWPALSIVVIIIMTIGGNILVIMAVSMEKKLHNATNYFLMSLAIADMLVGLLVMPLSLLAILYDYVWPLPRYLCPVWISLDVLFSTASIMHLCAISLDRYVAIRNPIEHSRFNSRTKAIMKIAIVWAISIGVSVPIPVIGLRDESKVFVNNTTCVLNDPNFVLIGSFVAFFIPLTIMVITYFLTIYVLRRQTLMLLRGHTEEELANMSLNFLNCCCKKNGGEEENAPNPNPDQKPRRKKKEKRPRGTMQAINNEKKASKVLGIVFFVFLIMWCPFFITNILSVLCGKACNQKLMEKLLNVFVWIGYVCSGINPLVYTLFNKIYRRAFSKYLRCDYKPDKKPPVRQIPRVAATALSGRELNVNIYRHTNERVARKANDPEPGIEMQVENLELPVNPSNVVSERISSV
Sequence of D(1A) dopamine receptor (P21728 whole entry): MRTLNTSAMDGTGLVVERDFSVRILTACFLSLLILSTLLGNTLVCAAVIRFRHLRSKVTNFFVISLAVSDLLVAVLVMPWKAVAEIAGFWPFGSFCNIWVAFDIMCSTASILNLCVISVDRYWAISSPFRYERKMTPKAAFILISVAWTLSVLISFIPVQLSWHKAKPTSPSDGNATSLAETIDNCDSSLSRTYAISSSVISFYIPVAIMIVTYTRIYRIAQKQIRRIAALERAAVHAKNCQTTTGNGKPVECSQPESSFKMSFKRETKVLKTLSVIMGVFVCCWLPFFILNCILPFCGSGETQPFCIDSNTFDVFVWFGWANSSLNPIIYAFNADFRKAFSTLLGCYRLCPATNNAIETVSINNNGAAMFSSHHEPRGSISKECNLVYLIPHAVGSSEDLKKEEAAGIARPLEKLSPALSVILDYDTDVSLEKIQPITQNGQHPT
Sequence of 5-hydroxytryptamine receptor 1A (P08908 whole entry): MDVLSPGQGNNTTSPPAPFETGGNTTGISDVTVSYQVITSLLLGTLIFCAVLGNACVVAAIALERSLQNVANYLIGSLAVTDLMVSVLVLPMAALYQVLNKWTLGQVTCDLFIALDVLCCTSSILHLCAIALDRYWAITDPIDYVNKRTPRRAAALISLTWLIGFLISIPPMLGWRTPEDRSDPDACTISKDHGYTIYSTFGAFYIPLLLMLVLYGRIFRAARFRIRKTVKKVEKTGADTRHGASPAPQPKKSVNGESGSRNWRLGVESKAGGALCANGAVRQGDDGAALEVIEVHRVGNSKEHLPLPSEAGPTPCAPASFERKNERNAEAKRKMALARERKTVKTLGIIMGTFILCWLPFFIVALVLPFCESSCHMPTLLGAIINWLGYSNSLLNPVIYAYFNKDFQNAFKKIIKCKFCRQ
Sequence of Sodium-dependent dopamine transporter (Q01959 whole entry): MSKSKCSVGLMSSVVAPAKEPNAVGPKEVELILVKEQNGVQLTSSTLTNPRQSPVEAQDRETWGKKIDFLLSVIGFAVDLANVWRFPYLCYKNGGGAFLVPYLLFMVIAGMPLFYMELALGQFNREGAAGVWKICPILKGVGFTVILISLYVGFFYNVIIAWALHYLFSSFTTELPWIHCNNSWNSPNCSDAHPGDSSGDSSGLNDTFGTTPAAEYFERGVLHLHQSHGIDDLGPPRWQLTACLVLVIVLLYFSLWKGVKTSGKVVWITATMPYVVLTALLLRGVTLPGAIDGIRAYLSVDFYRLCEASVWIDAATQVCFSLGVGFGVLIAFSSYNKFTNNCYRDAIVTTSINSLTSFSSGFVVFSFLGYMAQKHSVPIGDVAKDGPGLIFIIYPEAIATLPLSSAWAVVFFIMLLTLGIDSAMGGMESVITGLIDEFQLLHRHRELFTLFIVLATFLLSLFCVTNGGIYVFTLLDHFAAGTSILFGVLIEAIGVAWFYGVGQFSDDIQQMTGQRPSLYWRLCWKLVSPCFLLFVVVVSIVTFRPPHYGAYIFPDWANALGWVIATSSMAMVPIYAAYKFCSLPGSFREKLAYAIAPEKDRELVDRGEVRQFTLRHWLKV
Sequence of 5-hydroxytryptamine receptor 2A (P14842 whole entry): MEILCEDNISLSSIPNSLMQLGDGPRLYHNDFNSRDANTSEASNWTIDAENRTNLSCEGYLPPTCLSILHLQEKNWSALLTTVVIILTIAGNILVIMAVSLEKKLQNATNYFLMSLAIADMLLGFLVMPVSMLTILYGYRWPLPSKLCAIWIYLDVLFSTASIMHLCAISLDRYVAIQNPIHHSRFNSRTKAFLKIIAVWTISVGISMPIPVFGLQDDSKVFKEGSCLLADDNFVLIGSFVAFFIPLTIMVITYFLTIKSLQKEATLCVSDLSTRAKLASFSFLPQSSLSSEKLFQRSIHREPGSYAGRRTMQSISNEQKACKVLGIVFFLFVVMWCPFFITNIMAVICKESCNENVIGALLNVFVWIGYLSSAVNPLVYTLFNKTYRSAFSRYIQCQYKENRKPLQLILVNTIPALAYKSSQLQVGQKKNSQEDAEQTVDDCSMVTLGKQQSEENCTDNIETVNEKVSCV
Sequence of Sodium-dependent noradrenaline transporter (P23975 whole entry): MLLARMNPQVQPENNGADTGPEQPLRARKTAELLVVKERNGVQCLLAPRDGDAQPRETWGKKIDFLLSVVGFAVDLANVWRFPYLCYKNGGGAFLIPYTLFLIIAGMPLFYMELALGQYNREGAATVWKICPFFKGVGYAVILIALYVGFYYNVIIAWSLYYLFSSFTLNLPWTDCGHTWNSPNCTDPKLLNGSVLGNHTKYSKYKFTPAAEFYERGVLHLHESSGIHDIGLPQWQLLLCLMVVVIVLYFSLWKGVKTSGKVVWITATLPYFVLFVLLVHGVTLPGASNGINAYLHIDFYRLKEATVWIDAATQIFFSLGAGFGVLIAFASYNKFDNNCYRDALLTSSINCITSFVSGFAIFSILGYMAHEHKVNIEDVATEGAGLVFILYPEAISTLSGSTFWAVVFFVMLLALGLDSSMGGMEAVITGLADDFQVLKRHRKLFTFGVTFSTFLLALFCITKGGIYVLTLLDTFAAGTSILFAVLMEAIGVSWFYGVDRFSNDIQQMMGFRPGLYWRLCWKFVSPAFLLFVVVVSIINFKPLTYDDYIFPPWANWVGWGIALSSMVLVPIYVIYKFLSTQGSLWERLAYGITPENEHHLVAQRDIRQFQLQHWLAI
Sequence of 5-hydroxytryptamine receptor 6 (P50406 whole entry): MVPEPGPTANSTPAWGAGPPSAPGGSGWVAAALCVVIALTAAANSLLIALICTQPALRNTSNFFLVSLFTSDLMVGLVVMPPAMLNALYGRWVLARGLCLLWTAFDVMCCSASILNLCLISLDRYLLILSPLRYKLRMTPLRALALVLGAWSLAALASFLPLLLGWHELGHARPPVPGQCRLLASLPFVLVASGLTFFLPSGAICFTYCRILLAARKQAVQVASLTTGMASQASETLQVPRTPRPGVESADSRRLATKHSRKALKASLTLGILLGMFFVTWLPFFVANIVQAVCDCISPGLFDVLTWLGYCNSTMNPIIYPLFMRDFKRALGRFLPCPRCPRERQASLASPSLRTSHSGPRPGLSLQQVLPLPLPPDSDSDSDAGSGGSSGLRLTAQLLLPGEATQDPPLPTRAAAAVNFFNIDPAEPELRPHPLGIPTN
Sequence of 5-hydroxytryptamine receptor 1B (P28564 whole entry): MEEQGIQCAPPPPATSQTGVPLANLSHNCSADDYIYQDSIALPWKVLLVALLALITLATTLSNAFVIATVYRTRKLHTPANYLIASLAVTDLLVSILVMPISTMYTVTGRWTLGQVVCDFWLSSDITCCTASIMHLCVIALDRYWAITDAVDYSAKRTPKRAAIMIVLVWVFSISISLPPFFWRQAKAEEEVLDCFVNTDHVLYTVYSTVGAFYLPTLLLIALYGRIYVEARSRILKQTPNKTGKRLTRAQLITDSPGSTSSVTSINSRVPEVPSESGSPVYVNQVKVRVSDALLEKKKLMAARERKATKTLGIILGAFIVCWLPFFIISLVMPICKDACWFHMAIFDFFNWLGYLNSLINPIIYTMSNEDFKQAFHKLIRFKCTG
Sequence of Alpha-2A adrenergic receptor (P08913 whole entry): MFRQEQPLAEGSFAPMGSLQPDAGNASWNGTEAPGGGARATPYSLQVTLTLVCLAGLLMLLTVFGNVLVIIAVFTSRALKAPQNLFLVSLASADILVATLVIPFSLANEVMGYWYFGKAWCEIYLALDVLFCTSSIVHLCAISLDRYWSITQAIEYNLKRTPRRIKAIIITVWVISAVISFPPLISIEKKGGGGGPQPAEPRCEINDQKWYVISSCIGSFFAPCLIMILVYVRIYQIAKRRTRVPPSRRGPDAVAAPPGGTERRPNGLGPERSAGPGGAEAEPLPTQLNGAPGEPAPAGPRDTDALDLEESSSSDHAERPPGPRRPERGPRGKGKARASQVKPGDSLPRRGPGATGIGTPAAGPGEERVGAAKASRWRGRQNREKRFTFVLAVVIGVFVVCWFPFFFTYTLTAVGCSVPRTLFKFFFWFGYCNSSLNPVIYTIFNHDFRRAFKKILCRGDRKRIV

Compound	Ki [1] [µM]	Ki [2] [µM]	Ki [3] [µM]	Ki [4] [µM]	Ki (D(1A) dopamine receptor) [µM]	Ki [9] [µM]	Ki [10] [µM]	Ki [11] [µM]	Ki [12] [µM]	Ki [13] [µM]	also measured
OC(c1ccccc1)C1CCN(CCc2ccccc2)CC1 (centres undefined) [MDL-11939]	1.59	0.854	2.75	> 10	0.327	1.19	0.00289	3.42	0.0705	> 10	Ki (D(1B) dopamine receptor): 2.87 µM; Ki [5]: 2.6 µM; Ki [6]: 1.58 µM; Ki [7]: 1.42 µM; Ki [8]: 1.88 µM; Ki (Histamine H1 receptor): 1.6 µM; Ki (D(4) dopamine receptor): 3.93 µM
CN(C)CCON=C(C=Cc1ccc(O)cc1)c1ccccc1F [NSC_6438382]	0.726	0.00824	3.87	5.62	> 10	2.12	0.000951	2.5	0.914	0.739	Ki [14]: 2.39 µM; Ki [15]: 3.01 µM; Ki [16]: 1.75 µM; Ki (D(3) dopamine receptor): > 10 µM; Ki [17]: 0.733 µM; Ki [18]: 3.67 µM; Ki [19]: > 10 µM
